Reference: US9150603B2, “2′-cyano substituted nucleoside derivatives and methods of use thereof useful for the treatment of viral diseases” (priority 2011, dated 2015)

What was measured:
replicon cells (1b-Con1) = experiment: Replicon activity assay (1b-Con1 replicon cells, real-time RT-PCR); type: cell-based, HCV; conditions: Hepatitis C virus, 72 h, three days post-dosing
replicon cells = experiment: Cytotoxicity in replicon cells (MTS assay); conditions: CC50, MTS assay, three days post dosing
HCV replicon cells (1b) = experiment: Cell-based HCV replicon assay (replicon RNA level by Taqman real time PCR); conditions: HCV 1b replicon, cells harvested on day 3
Procedure: To measure cell-based anti-HCV activity of selected compounds of the present invention, replicon cells were seeded at 5000 cells/well in 96-well collagen I-coated Nunc plates in the presence of the test compound. […]. Cells were harvested on day 3 by the addition of 1× cell lysis buffer (Ambion cat #8721). The replicon RNA level was measured using real time PCR (Taqman assay). The amplicon was located in 5B. The PCR primers were: 5B.2F, […] (SEQ ID. NO. 1); 5B.2R, […] (SEQ ID. NO. 2); the probe sequence was FAM-labeled […] (SEQ ID. NO. 3). GAPDH RNA was used as endogenous control and was amplified in the same reaction as NSSB (multiplex PCR) using primers and VIC-labeled probe recommended by the manufacturer (PE Applied Biosystem). The real-time RT-PCR reactions were run on ABI PRISM 7900HT Sequence Detection System using the following program: 48° C. for 30 minutes, 95° C. for 10 minutes, 40 cycles of 95° C. for 15 sec, 60° C. for 1 minute. The ACT values (CT5B−CTGAPDH) were plotted against the concentration of test compound and fitted to the sigmoid dose-response model using XLfit4 (MDL). […]; Alternatively, to quantitate the absolute amount of replicon RNA, a standard curve was established by including serially diluted T7 transcripts of replicon RNA in the Taqman assay. All Taqman reagents were from […] Applied Biosystems. Such an assay procedure was described in detail in e.g. Malcolm et al., Antimicrobial Agents and Chemotherapy 50: 1013-1020 (2006).

In the case of C[C@H](NP(=O)(OC[C@H]1O[C@@H](n2ccc(=O)[nH]c2=O)[C@](C)(C#N)[C@@H]1O)Oc1ccccc1)C(=O)O[C@H](C)c1ccccc1 (stereo partly drawn), the EC50 (replicon cells (1b-Con1)) is reported as 34000 nM and the Cytotoxicity (replicon cells) is reported as >100 µM.
CC(C)OC(=O)[C@H](C)NP(=O)(OC[C@H]1O[C@@H](n2ccc(=O)[nH]c2=O)[C@](C)(C#N)[C@@H]1O)Oc1ccccc1 (stereo partly drawn) was tested, and the EC50 (replicon cells (1b-Con1)) was 8300 nM and the Cytotoxicity (replicon cells) was >100 µM.
C[C@H](NP(=O)(OC[C@H]1O[C@@H](n2ccc(=O)[nH]c2=O)[C@](C)(C#N)[C@@H]1O)Oc1ccccc1)C(=O)OC1CCCCC1 (stereo partly drawn) gave an EC50 (replicon cells (1b-Con1)) of 2400 nM.
Work on CCCOC(=O)[C@H](C)NP(=O)(OC[C@H]1O[C@@H](n2cnc3c(OC)nc(N)nc32)[C@](C)(C#N)[C@@H]1O)Oc1ccccc1 (stereo partly drawn) yielded an EC50 (replicon cells (1b-Con1)) of 2100 nM.
With COc1nc(N)nc2c1ncn2[C@@H]1O[C@H](COP(=O)(N[C@@H](C)C(=O)OC(C)C)Oc2ccccc2)[C@@H](O)[C@@]1(C)C#N (stereo partly drawn) the EC50 (replicon cells (1b-Con1)) was 2200 nM and the Cytotoxicity (replicon cells) was >100 µM.
For COc1nc(N)nc2c1ncn2[C@@H]1O[C@H](COP(=O)(N[C@@H](C)C(=O)OC(C)C)Oc2ccccc2OC(C)=O)[C@@H](O)[C@@]1(C)C#N (stereo partly drawn), the EC50 (replicon cells (1b-Con1)) was 8900 nM and the Cytotoxicity (replicon cells) was 15 µM.
With CC(C)OP1(=O)OC[C@H]2O[C@@H](n3ccc(=O)[nH]c3=O)[C@](C)(C#N)[C@@H]2O1 (stereo partly drawn) the EC50 (replicon cells (1b-Con1)) was 1300 nM and the Cytotoxicity (replicon cells) was >100 µM.
In the case of CC(C)COC(=O)[C@H](C)NP(=O)(OC[C@H]1O[C@@H](n2ccc(N)nc2=O)[C@](C)(C#N)[C@@H]1O)Oc1ccccc1 (stereo partly drawn), the EC50 (replicon cells (1b-Con1)) is reported as 400 nM and the Cytotoxicity (replicon cells) is reported as 92 µM.
For CCC(NP(=O)(OC[C@H]1O[C@@H](n2cnc3c(OC)nc(N)nc32)[C@](C)(C#N)[C@@H]1O)Oc1ccccc1)C(=O)OC(C)C (stereo partly drawn), the EC50 (replicon cells (1b-Con1)) was 2200 nM and the Cytotoxicity (replicon cells) was >100 µM.
CCOc1nc(N)nc2c1ncn2[C@@H]1O[C@@H]2COP(=O)(OC3CCC3)O[C@H]2[C@@]1(C)C#N (stereo partly drawn) was tested, and the EC50 (replicon cells (1b-Con1)) was 1200 nM and the Cytotoxicity (replicon cells) was >100 µM.
With CC(=O)Nc1ccn([C@@H]2O[C@H](CO)[C@@H](O)[C@@]2(C)C#N)c(=O)n1 [Compound 1] the EC50 (HCV replicon cells (1b); Hepatitis C virus, 72 h) was 14000 nM.
C[C@@]1(C#N)[C@H](O)[C@@H](CO)O[C@H]1n1ccc(=O)[nH]c1=O [Compound 2, 1-[(2R,3R,4S,5R)-3-cyano-4-hydroxy-5-(hydroxymethyl)-3-methyloxolan-2-yl]-1,2,3,4-tetrahydropyrimidine-2,4-dione] showed an EC50 (HCV replicon cells (1b)) of 12600 nM.
With C[C@@]1(C#N)[C@H](O)[C@@H](CO)O[C@H]1n1ccc(=O)[nH]c1=O [Compound 3] the EC50 (HCV replicon cells (1b)) was > 66000 nM.
For CCOc1nc(NC(C)=O)nc2c1ncn2[C@@H]1O[C@H](CO)[C@@H](O)[C@@]1(C)C#N [Compound 4], the EC50 (HCV replicon cells (1b); Hepatitis C virus, 72 h) was 100000 nM.
For CCOc1nc(N)nc2c1ncn2[C@@H]1O[C@H](CO)[C@@H](O)[C@@]1(C)C#N [Compound 5], the EC50 (HCV replicon cells (1b); Hepatitis C virus, 72 h) was > 100000 nM.
CCOc1nc(N)nc2c1ncn2[C@@H]1O[C@H](COP(=O)(N[C@@H](C)C(=O)OC)Oc2ccccc2)[C@@H](O)[C@@]1(C)C#N (stereo partly drawn) [Compound 6] was tested, and the EC50 (HCV replicon cells (1b); Hepatitis C virus, 72 h) was 1400 nM.
CCCCOC(=O)[C@H](C)NP(=O)(OC[C@H]1O[C@@H](n2cnc3c(OCC)nc(N)nc32)[C@](C)(C#N)[C@@H]1O)Oc1cccc2ccccc12 (stereo partly drawn) [Compound 7] showed an EC50 (HCV replicon cells (1b); Hepatitis C virus, 72 h) of 1000 nM.
CCOC(=O)[C@H](C)NP(=O)(OC[C@H]1O[C@@H](n2cnc3c(OCC)nc(N)nc32)[C@](C)(C#N)[C@@H]1O)Oc1ccccc1 (stereo partly drawn) [Compound 8] was tested, and the EC50 (HCV replicon cells (1b); Hepatitis C virus, 72 h) was 11700 nM.
CCOc1nc(N)nc2c1ncn2[C@@H]1O[C@H](COP(=O)(N[C@@H](C)C(=O)OCC(C)(C)C)Oc2ccccc2)[C@@H](O)[C@@]1(C)C#N (stereo partly drawn) [Compound 9] showed an EC50 (HCV replicon cells (1b); Hepatitis C virus, 72 h) of 700 nM.
For CCOc1nc(N)nc2c1ncn2[C@@H]1O[C@H](COP(=O)(N[C@@H](C)C(=O)OC(C)C)Oc2ccccc2)[C@@H](O)[C@@]1(C)C#N (stereo partly drawn) [Compound 10], the EC50 (HCV replicon cells (1b); Hepatitis C virus, 72 h) was 15000 nM.
With CCOC(=O)[C@H](C)NP(=O)(OC[C@H]1O[C@@H](n2cnc3c(OCC)nc(N)nc32)[C@](C)(C#N)[C@@H]1O)Oc1ccc(F)cc1 (stereo partly drawn) [Compound 11] the EC50 (HCV replicon cells (1b); Hepatitis C virus, 72 h) was 17000 nM.
CCOC(=O)[C@H](C)NP(=O)(OC[C@H]1O[C@@H](n2cnc3c(OCC)nc(N)nc32)[C@](C)(C#N)[C@@H]1O)Oc1ccc(Cl)cc1 (stereo partly drawn) [Compound 12] was tested, and the EC50 (HCV replicon cells (1b); Hepatitis C virus, 72 h) was 1700 nM.
